{"source": "patent US7528224B1", "about": "“Peptide for triggering an immune reaction against tumor cells” (Immatics Biotechnologies GmbH, priority 1999, dated 2009)", "key": {"[1]": {"system": "cytotoxic T cells", "test": "Induction of cytotoxic T cells in vitro with peptide-pulsed dendritic cells", "format": "cell-based, human", "settings": "dendritic cells incubated with 50 μg/ml synthetic peptide, autologous mononuclear cells", "procedure": "As e.g. described by Brossart, P., et al., Cancer Res 58 (1998), pages 732 ff.; first of all, mononuclear cells of peripheral blood were isolated from buffy coat preparations of heparinized blood of three healthy donators by Ficoll/Paque (Gibco-BRL, Grand Island, N.Y.) density-gradient centrifugation. The cells were seeded in cell culture bowls in RP10 medium.\n5×10^5 dendritic cells from 1.1 were incubated with 50 μg/ml synthetic peptide from 1.2 for two hours, washed, and incubated with 2.5×10^6 autologous, i.e. coming from the same donators, mononuclear cells of periphery blood in RP10 medium. Additionally to the control peptides and the potentially HLA-A2 binding peptides the dendritic cells were partly incubated with 50 μg/ml of a PAN-HLA-DR-binding peptide which represents a T helper epitope.\nAfter seven days of cultivation, the cells were again stimulated by adding autologous, mononuclear cells of peripheral blood pre-incubated with the synthetic peptide from 1.2. On the first, third and fifth day, respectively, 1 ng/ml human recombinant IL-2 (Genzyme) was added. The cytokine IL-2 is necessary for the cultivation and reproduction of cytotoxic T cells. Altogether, stimulation was effected up to three times in an interval of a week."}, "[2]": {"system": "T2 cells", "test": "51Cr release cytotoxic T cell activity on peptide-pre-incubated T2 cells", "format": "cell-based, human", "settings": "4 h; for killing of T2 cells pre-treated with the same peptide by the cytotoxic T cells induced with the peptide: T2 cells pre-incubated with 50 μg/ml of exactly this peptide; for killing of T2 cells pre-treated with other peptides by the cytotoxic T cells induced with the peptide: T2 cells pre-incubated with other peptides", "procedure": "T2 cells which are distinguished by the fact that they can generate HLA-A2, but cannot present peptides synthesized by themselves via this MHC class I molecules, were pre-incubated with 50 μg/ml of synthetic peptide from 1.2 for two hours and marked with [^51Cr]-sodium chromate in RP10 at 37° C. for one hour. In each case 10^4 of these cells were transferred into each of a well of a 96-well-plate. Cytotoxic T cells that were generated before according to 1.3 were added, so that, respectively, an end volume of 200 μl per well was reached. Subsequently, incubation took place for four hours at 37° C. If now the cytotoxic T cells kill the cells that were labeled with ^51Cr before, they lyse these cells, and the ^51Cr contained in the cells is released. At the end of the experiment in the cell supernatants taken off, the released radioactivity is determined by counting in a β-counter. In that way, a measure for the cytotoxic activity of T cells is obtained."}}, "note": "Ends that are not written are not given here.", "data": [{"sequence": "LLLLTVLTV [SEQ ID NO: 2]", "values": [{"measurement": "induction of cytotoxic T cells in vitro by means of dendritic cells", "setting": "[1]", "result": "able to induce cytotoxic T cells"}, {"measurement": "killing of T2 cells pre-treated with the same peptide by the cytotoxic T cells induced with the peptide", "setting": "[2]", "result": "could kill only those cells which were pre-treated with the peptide with the sequence SEQ ID NO: 2"}, {"measurement": "killing of T2 cells pre-treated with other peptides by the cytotoxic T cells induced with the peptide", "setting": "[2]", "result": "behave in the same way"}]}, {"sequence": "STAPPVHNV [SEQ ID NO: 1]", "values": [{"measurement": "induction of cytotoxic T cells in vitro by means of dendritic cells", "setting": "[1]", "result": "able to induce cytotoxic T cells"}, {"measurement": "killing of T2 cells pre-treated with the same peptide by the cytotoxic T cells induced with the peptide", "setting": "[2]", "result": "able to specifically kill"}, {"measurement": "killing of T2 cells pre-treated with other peptides by the cytotoxic T cells induced with the peptide", "setting": "[2]", "result": "not able to kill"}]}]}
